Data on five molecules can be found in US5668295A, “Protein involved in nicotine synthesis, DNA encoding, and use of sense and antisense DNAs corresponding thereto to affect nicotine content in transgenic tobacco cells and plants” (Philip Morris Incorporated, priority 1995, dated 1997).

In test [1] the test system is putrescine N-methyltransferase ("PMT") / highly purified tobacco protein. Nature of the test: Substrate specificity test: analogs substituted for putrescine in the standard PMT assay. The conditions noted are these: for radioactive product formed when substituted for putrescine: standard PMT assay, 30° C., 30 minutes. The test is classed as biochemical, Nicotiana tabacum L. var. Burley 21. The protocol:
(§1) The reaction was started by addition of the enzyme sample, and it was carried out at 30° C. for 30 minutes. The reaction was stopped by addition of 0.5 ml of 10% (w/v) NaOH saturated with NaCl.
(§2) The radioactive product, N-[^14 C-methyl]putrescine, was separated from the substrate by solvent extraction into chloroform. After vortexing the stopped reaction mixture with 1 ml of chloroform for 90 seconds, the organic and aqueous phases were separated by centrifugation at 1600×gav for 5 minutes. A 0.5 ml aliquot of the organic phase was then assayed. The 0.5 ml aliquot of the organic phase was added to 9.5 ml of liquid scintillation cocktail (Beckman Instruments, Columbia, Md.) and radioactivity was measured by standard procedures with a liquid scintillation counter.
(§3) One unit of apparent PMT activity is defined as one nanomole of product formed per 30 min., at 30° C.
(§4) Negative controls were included with all PMT assays. Negative controls consisted of reaction mixtures minus enzyme, or reaction stopped with NaOH at time zero.
Substrate specificity tests were carried out with the highly purified tobacco protein of the present invention. 1,3-Diaminopropane and 1,5-diaminopentane (chemical analogs of putrescine) phosphatidylethanolamine (a methyl group acceptor), and N-methylputrescine(the normal product of PMT), were compared with putrescine (1,4-diaminobutane) for ability to serve as an apparent substrate for PMT.

Test [2] concerns putrescine N-methyltransferase ("PMT") / subject tobacco protein. The experiment in a line: Apparent Km determination in the apparent PMT activity assay. The test is classed as biochemical, Nicotiana tabacum L. var. Burley 21. The conditions noted are these: partially purified tobacco protein; S-adenosylmethionine in excess. The protocol:
as §1, §2, §3, §4

`NCCCCCN` [1,5-diaminopentane]: in test [1], the “radioactive product formed when substituted for putrescine” value (“radioactive product formed” for short) is listed as “no detectable amount of radioactive product was formed”.

For the molecule `CNCCCCN` [N-methylputrescine], the “radioactive product formation relative to that observed with putrescine” value in test [1] (substituted for putrescine in the PMT assay) is “less than 6%”.

Regarding `NCCCN` [1,3-diaminopropane, 1,3-Diaminopropane], in test [1], the “radioactive product formed” value is “no detectable amount of radioactive product was formed”.

On to `NCCCCN` [putrescine, 1,4-diaminobutane], for which the Km in test [2] is ~400 µM.

Regarding phosphatidylethanolamine, the “radioactive product formed” value in test [1] is reported as “no detectable amount of radioactive product was formed”.

In general, Km refers to the substrate concentration at which the rate is half of its maximum.
